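Cells were grown in 96-well plates and exposed to each compound for 48 hours at five concentrations; endpoints were interpolated linearly between bracketing concentrations, or set to the highest concentration if not reached. Here, GI50 denotes the concentration required for 50% inhibition of growth.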 The source made the active and inactive calls. Rule as the data show it: active = GI50 up to about 1.1 µM and inactive = higher.
Experiments:
Assay in all cases: DTP human tumour cell line panel, 48 h
HT-29 = test system: HT-29
SR = test system: SR
PC-3 = test system: PC-3
KM12 = test system: KM12
NCI/ADR-RES = test system: NCI/ADR-RES
MDA-MB-231 = test system: MDA-MB-231
HOP-92 = test system: HOP-92
IGROV-1 = test system: IGROV-1
SNB-19 = test system: SNB-19
Malme-3M = test system: Malme-3M
CAKI-1 = test system: CAKI-1
SF-539 = test system: SF-539
A549 = test system: A549
OVCAR-8 = test system: OVCAR-8
ACHN = test system: ACHN
BT-549 = test system: BT-549
NCI-H460 = test system: NCI-H460
HCT-116 = test system: HCT-116
HOP-62 = test system: HOP-62
M14 = test system: M14

Structure (SMILES) | GI50 (HT-29) | GI50 (SR) | GI50 (PC-3) | GI50 (KM12) | GI50 (NCI/ADR-RES) | GI50 (MDA-MB-231) | GI50 (HOP-92) | GI50 (IGROV-1) | GI50 (SNB-19) | GI50 (Malme-3M) | GI50 (CAKI-1) | GI50 (SF-539) | GI50 (A549) | GI50 (OVCAR-8) | GI50 (ACHN) | GI50 (BT-549) | GI50 (NCI-H460) | GI50 (HCT-116) | GI50 (HOP-62) | GI50 (M14)
Oc1ccc(C(c2ccc(O)cc2)c2ccc(O)cc2)cc1 | 19 µM (inactive) | 37.1 µM (inactive) | 24 µM (inactive) | 16.7 µM (inactive) | 18.9 µM (inactive) | 16.3 µM (inactive) | 18.1 µM (inactive) | 14.3 µM (inactive) | 24.4 µM (inactive) | 16.5 µM (inactive) | 16.1 µM (inactive) | 20.8 µM (inactive) | 35.9 µM (inactive) | 15.6 µM (inactive) | 27.3 µM (inactive) | 20.5 µM (inactive) | 18.8 µM (inactive) | 16.8 µM (inactive) | – | –
O=S(=O)(O)c1cc(/N=N/c2cccc3ccccc23)c(O)c2ncccc12 | 24.8 µM (inactive) | 23.2 µM (inactive) | 55.6 µM (inactive) | 80.2 µM (inactive) | 65.2 µM (inactive) | > 100 µM (inactive) | > 100 µM (inactive) | 29.3 µM (inactive) | > 100 µM (inactive) | – | > 100 µM (inactive) | 56.1 µM (inactive) | 35.4 µM (inactive) | > 100 µM (inactive) | 44 µM (inactive) | > 100 µM (inactive) | 25.4 µM (inactive) | 34.9 µM (inactive) | > 100 µM (inactive) | 47.8 µM (inactive)
OCC1OC(O)C(/N=C\c2ccc3c(c2)OCO3)C(O)C1O (stereo unspecified) | > 100 µM (inactive) | > 100 µM (inactive) | > 100 µM (inactive) | > 100 µM (inactive) | > 100 µM (inactive) | > 100 µM (inactive) | > 100 µM (inactive) | > 100 µM (inactive) | > 100 µM (inactive) | > 100 µM (inactive) | > 100 µM (inactive) | > 100 µM (inactive) | > 100 µM (inactive) | > 100 µM (inactive) | > 100 µM (inactive) | > 100 µM (inactive) | > 100 µM (inactive) | > 100 µM (inactive) | > 100 µM (inactive) | > 100 µM (inactive)
COC1CC2C=CC3C4OC2(/C(C)=C/C(C)C(C(C)O)OC1=O)C3C(O)C(C)C4OC(=O)c1ccc[nH]1 (stereo unspecified) | 66.8 µM (inactive) | 26.5 µM (inactive) | 46.6 µM (inactive) | 21 µM (inactive) | 66.2 µM (inactive) | > 100 µM (inactive) | > 100 µM (inactive) | > 100 µM (inactive) | > 100 µM (inactive) | – | > 100 µM (inactive) | 59.6 µM (inactive) | > 100 µM (inactive) | 48.9 µM (inactive) | > 100 µM (inactive) | 81.5 µM (inactive) | 67 µM (inactive) | 49.3 µM (inactive) | > 100 µM (inactive) | > 100 µM (inactive)
O=C(/C=C/c1cccc(Oc2ccccc2)c1)NCc1ccc(C(=O)NCc2ccccc2)cc1 | 17.3 µM (inactive) | > 100 µM (inactive) | > 100 µM (inactive) | > 100 µM (inactive) | 35.3 µM (inactive) | 52.2 µM (inactive) | 37.8 µM (inactive) | 79.8 µM (inactive) | 32.4 µM (inactive) | 41.3 µM (inactive) | 43.8 µM (inactive) | 0.865 µM (active) | > 100 µM (inactive) | 14.1 µM (inactive) | 71 µM (inactive) | 60.1 µM (inactive) | > 100 µM (inactive) | 50.6 µM (inactive) | 2.96 µM (inactive) | > 100 µM (inactive)
COc1nc2c(c(=O)n1C)N=C(c1ccc(Cl)cc1)CC(c1ccccc1)N2 (stereo unspecified) | 18.7 µM (inactive) | 23.7 µM (inactive) | 37.7 µM (inactive) | 16.7 µM (inactive) | 22.2 µM (inactive) | 23.3 µM (inactive) | 42.8 µM (inactive) | 17.2 µM (inactive) | 38.8 µM (inactive) | – | 26.9 µM (inactive) | 17.7 µM (inactive) | 36.5 µM (inactive) | 26.8 µM (inactive) | 20.9 µM (inactive) | 27.4 µM (inactive) | 14.4 µM (inactive) | 22.7 µM (inactive) | 32.1 µM (inactive) | 32.9 µM (inactive)
CCOC(=O)c1cc(Br)c(-c2cc(C)co2)[nH]1 | > 100 µM (inactive) | 31.8 µM (inactive) | > 100 µM (inactive) | 73.3 µM (inactive) | > 100 µM (inactive) | > 100 µM (inactive) | > 100 µM (inactive) | 66.1 µM (inactive) | > 100 µM (inactive) | > 100 µM (inactive) | > 100 µM (inactive) | > 100 µM (inactive) | > 100 µM (inactive) | > 100 µM (inactive) | – | > 100 µM (inactive) | > 100 µM (inactive) | > 100 µM (inactive) | > 100 µM (inactive) | > 100 µM (inactive)
CC(=O)Oc1c2c(c(CC=C(C)C)c3c1C(=O)C1=C[C@@H]4CC5C(C)(C)OC(C/C=C(/C)C(=O)O)(C4=O)[C@@]15O3)OC(C)(CCC=C(C)C)C=C2 (stereo partly specified) | 0.19 µM (active) | 0.258 µM (active) | 0.244 µM (active) | 0.188 µM (active) | 0.525 µM (active) | 0.227 µM (active) | 0.237 µM (active) | 0.0998 µM (active) | 0.269 µM (active) | 0.29 µM (active) | 0.174 µM (active) | 0.0986 µM (active) | 0.188 µM (active) | 0.184 µM (active) | 0.102 µM (active) | 0.205 µM (active) | 0.486 µM (active) | 0.149 µM (active) | 0.832 µM (active) | 0.282 µM (active)
C=C(C)[C@@H]1CCc2c(c(C)cc(O)c(=O)c2O)C1 | 3.01 µM (inactive) | 0.515 µM (active) | 3.85 µM (inactive) | 3.03 µM (inactive) | 0.583 µM (active) | > 52.1 µM (inactive) | 0.573 µM (active) | 0.179 µM (active) | 1.13 µM (inactive) | 3.43 µM (inactive) | 0.13 µM (active) | 0.6 µM (active) | 1.17 µM (inactive) | 0.706 µM (active) | 1.18 µM (inactive) | 8.95 µM (inactive) | 0.102 µM (active) | 0.156 µM (active) | – | 1.47 µM (inactive)
O=C1/C(=C/Cc2ccco2)N=C(c2ccccc2)N1c1nc2ccc(Sc3ccccc3)cc2[nH]1 | 25 µM (inactive) | 13.6 µM (inactive) | 22.9 µM (inactive) | 16.7 µM (inactive) | 23.6 µM (inactive) | 20.5 µM (inactive) | 18.7 µM (inactive) | 30.3 µM (inactive) | 33.2 µM (inactive) | – | 25.4 µM (inactive) | 28.5 µM (inactive) | 29.8 µM (inactive) | 20.9 µM (inactive) | 19.4 µM (inactive) | 20.3 µM (inactive) | 26.9 µM (inactive) | 17.8 µM (inactive) | 30.1 µM (inactive) | 19.7 µM (inactive)
CCOc1cc(NC(C)=O)ccc1C(=O)N/N=C/c1ccco1 | > 100 µM (inactive) | 9.95 µM (inactive) | > 100 µM (inactive) | > 100 µM (inactive) | > 100 µM (inactive) | > 100 µM (inactive) | 11.8 µM (inactive) | 94 µM (inactive) | – | > 100 µM (inactive) | 76.6 µM (inactive) | 89.7 µM (inactive) | – | > 100 µM (inactive) | 35.6 µM (inactive) | > 100 µM (inactive) | 24.5 µM (inactive) | > 100 µM (inactive) | > 100 µM (inactive) | –
N#Cc1c(N)c2c(c(-c3ccccc3)c1-c1ccccc1)C(=O)N(N)C2=O | > 100 µM (inactive) | > 100 µM (inactive) | 74.6 µM (inactive) | > 100 µM (inactive) | 56 µM (inactive) | > 100 µM (inactive) | 26.9 µM (inactive) | 60 µM (inactive) | > 100 µM (inactive) | > 100 µM (inactive) | 25.2 µM (inactive) | 47.1 µM (inactive) | 94 µM (inactive) | > 100 µM (inactive) | > 100 µM (inactive) | > 100 µM (inactive) | > 100 µM (inactive) | > 100 µM (inactive) | – | > 100 µM (inactive)
CCOC(=O)CCCn1nnc(C(=O)OCC)c1C(=O)OCC | > 100 µM (inactive) | > 100 µM (inactive) | > 100 µM (inactive) | > 100 µM (inactive) | > 100 µM (inactive) | > 100 µM (inactive) | > 100 µM (inactive) | > 100 µM (inactive) | > 100 µM (inactive) | > 100 µM (inactive) | > 100 µM (inactive) | > 100 µM (inactive) | > 100 µM (inactive) | > 100 µM (inactive) | > 100 µM (inactive) | > 100 µM (inactive) | > 100 µM (inactive) | > 100 µM (inactive) | > 100 µM (inactive) | –
CC1=C2C(=CO[C@H](C)[C@H]2C)C(O)=C(C(=O)O)C1=O [CITRININ] | 33.9 µM (inactive) | 15.6 µM (inactive) | 32 µM (inactive) | 26.9 µM (inactive) | 43.8 µM (inactive) | 23.2 µM (inactive) | 25.1 µM (inactive) | 18.6 µM (inactive) | 21.9 µM (inactive) | 50.1 µM (inactive) | 27.3 µM (inactive) | 12.3 µM (inactive) | 70.5 µM (inactive) | 13.2 µM (inactive) | 21 µM (inactive) | 13.3 µM (inactive) | – | 25.8 µM (inactive) | 17.1 µM (inactive) | 23 µM (inactive)

From ChEMBL document CHEMBL1201862, “PubChem BioAssay data set” (2004)
